Among the data in US12594276B2, “Inhibitors of human immunodeficiency virus replication” (ViiV Healthcare UK (No.5) Limited, priority 2024, dated 2026) are EC50 and CC50 values, retold here.

Data set [1] deals with recombinant NL4-3 virus (nef section replaced with Renilla luciferase gene) in MT-2 cells. The data set is described as follows: HIV cell culture assay (antiviral activity, luciferase readout). The note with it: Renilla, NL43, MT-2 cells infected for 4-5 days with recombinant NL4-3 Renilla luciferase virus. It is filed as cell-based. A digest of the protocol:
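Antiviral EC50 derived from luciferase signal using the exponential median effect equation. Infection of MT-2 cells ran 4-5 days alongside serial dilutions of compound, with virus generated by proviral clone transfection of 293T cells.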

The nature of data set [2]: Compound cytotoxicity, XTT-based colorimetric assay. The data set is classed as cell-based. As to conditions: human. In outline:
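CC50 derived from XTT colorimetric signal measured on day 4 in MT2 cells that were not infected. All other steps followed the antiviral assay protocol.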

Where [3] appears, read: uninfected MT2 cells, day 4, XTT, read-out: CC50.

pEC50: −log10 of the molar value. Where two headings read alike, the source gives them in different places.

One may read the pEC50 as the negative decadic logarithm of the EC50, by convention in mol/L. The CC50 is the concentration that lowers cell viability or growth by half. Consider `CCNc1cc(C2CCC(F)(F)CC2)nc2nc([C@H](Cc3cc(F)cc(F)c3)NC(=O)Cn3nc(C4CC4)c4c3C[C@@H]3C[C@H]43)n(-c3ccc(Cl)c4c(NS(C)(=O)=O)nn(CCCOC)c34)c(=O)c12` (atropisomer, axis not shown; (P)) [Example 601, N-[(1S)-1-[(3P)-3-[4-chloro-3-methanesulfonamido-1-(3-methoxypropyl)-1H-indazol-7-yl]-7-(4,4-difluorocyclohexyl)-5-(ethylamino)-4-oxo-3H,4H-pyrido[2,3-d]pyrimidin-2-yl]-2-(3,5-difluorophenyl)ethyl]-2-[(2S,4S)-9-cyclopropyl-7,8-diazatricyclo[4.3.0.0^2,^4]nona-1(6),8-dien-7-yl]acetamide], for which the pEC50 in data set [1] was 11.10. The CC50 at 4 days in data set [2] (setting [3]) was > 20 nM.

Turning to `Cc1cc(C2(F)CCC(F)(F)CC2)nc2nc([C@H](Cc3cc(F)cc(F)c3)NC(=O)Cn3nc(C4CC4)c4c3C[C@@H]3C[C@H]43)n(-c3ccc(Cl)c4c(NS(C)(=O)=O)nn([C@H](C)C(=O)N5CC(C)(C)OC(C)(C)C5)c34)c(=O)c12` (relative stereo) [Example 750, N-[(1S)-1-[(3P)-3-{4-chloro-3-methanesulfonamido-1-[(2R)-1-oxo-1-(2,2,6,6-tetramethylmorpholin-4-yl)propan-2-yl]-1H-indazol-7-yl}-5-methyl-4-oxo-7-(1,4,4-trifluorocyclohexyl)-3H,4H-pyrido[2,3-d]pyrimidin-2-yl]-2-(3,5-difluorophenyl)ethyl]-2-[(2R*,4R*)-9-cyclopropyl-7,8-diazatricyclo[4.3.0.0^2,^4]nona-1(6),8-dien-7-yl]acetamide], the pEC50 in data set [1] was 10.55. Also, the CC50 at 4 days in data set [2] (setting [3]) is > 20 nM.

Consider `Cc1cc(C2CCC(F)(F)CC2)nc2nc([C@H](Cc3cc(F)cc(F)c3)NC(=O)Cn3nc(C(F)F)c4c3C(F)(F)[C@@H]3C[C@H]43)n(-c3ccc(Cl)c4c(NS(C)(=O)=O)nn(CCN5CCC(F)(F)C5)c34)c(=O)c12` (atropisomer, axis not shown; (P)) [Example 231, N-[(1S)-1-[(3P)-3-{4-chloro-1-[2-(3,3-difluoropyrrolidin-1-yl)ethyl]-3-methanesulfonamido-1H-indazol-7-yl}-7-(4,4-difluorocyclohexyl)-5-methyl-4-oxo-3H,4H-pyrido[2,3-d]pyrimidin-2-yl]-2-(3,5-difluorophenyl)ethyl]-2-[(2S,4R)-9-(difluoromethyl)-5,5-difluoro-7,8-diazatricyclo[4.3.0.0^2,^4]nona-1(6),8-dien-7-yl]acetamide], for which the pEC50 in data set [1] is 11.00. Besides, in data set [2] (setting [3]), the CC50 at 4 days was > 50 nM.

Turning to `Cc1cc(C2CCC(F)(F)CC2)nc2nc([C@H](Cc3cc(F)cc(F)c3)NC(=O)Cn3nc(C4CC4)c4c3C[C@@H]3C[C@H]43)n(-c3ccc(Cl)c4c(NS(C)(=O)=O)nn(CCN5CC(F)(F)C5)c34)c(=O)c12` (atropisomer, axis not shown; (P)) [Example 283, N-[(1S)-1-[(3P)-3-{4-chloro-1-[2-(3,3-difluoroazetidin-1-yl)ethyl]-3-methanesulfonamido-1H-indazol-7-yl}-7-(4,4-difluorocyclohexyl)-5-methyl-4-oxo-3H,4H-pyrido[2,3-d]pyrimidin-2-yl]-2-(3,5-difluorophenyl)ethyl]-2-[(2S,4S)-9-cyclopropyl-7,8-diazatricyclo[4.3.0.0^2,^4]nona-1(6),8-dien-7-yl]acetamide], the pEC50 in data set [1] was 11.10. Moreover, the CC50 at 4 days in data set [2] (setting [3]) is > 50 nM.

With `Cc1cc(C2(CF)CCC(F)(F)CC2)nc2nc([C@H](Cc3cc(F)cc(F)c3)NC(=O)Cn3nc(C(F)F)c4c3C(F)(F)[C@@H]3C[C@H]43)n(-c3ccc(Cl)c4c(NS(C)(=O)=O)nn(CCN5C[C@H](F)C[C@H](F)C5)c34)c(=O)c12` (atropisomer, axis not shown; (P)) [Example 556, N-[(1S)-1-[(3P)-3-(4-chloro-1-{2-[(3R,5S)-3,5-difluoropiperidin-1-yl]ethyl}-3-methanesulfonamido-1H-indazol-7-yl)-7-[4,4-difluoro-1-(fluoromethyl)cyclohexyl]-5-methyl-4-oxo-3H,4H-pyrido[2,3-d]pyrimidin-2-yl]-2-(3,5-difluorophenyl)ethyl]-2-[(2S,4R)-9-(difluoromethyl)-5,5-difluoro-7,8-diazatricyclo[4.3.0.0^2,^4]nona-1(6),8-dien-7-yl]acetamide], the pEC50 in data set [1] is 10.85. For the same compound, the CC50 at 4 days in data set [2] (setting [3]) is > 20 nM.

`CS(=O)(=O)Nc1nn(CCN2[C@@H]3CC[C@H]2CC(F)(F)C3)c2c(-n3c([C@H](Cc4cc(F)cc(F)c4)NC(=O)Cn4nc(C(F)F)c5c4C(F)(F)[C@@H]4C[C@H]54)nc4nc(C5CCC(F)(F)CC5)ccc4c3=O)ccc(Cl)c12` (atropisomer, axis not shown; (P)) [Example 43, N-[(1S)-1-[(3P)-3-(4-chloro-1-{2-[(1R,5S)-3,3-difluoro-8-azabicyclo[3.2.1]octan-8-yl]ethyl}-3-methanesulfonamido-1H-indazol-7-yl)-7-(4,4-difluorocyclohexyl)-4-oxo-3H,4H-pyrido[2,3-d]pyrimidin-2-yl]-2-(3,5-difluorophenyl)ethyl]-2-[(2S,4R)-9-(difluoromethyl)-5,5-difluoro-7,8-diazatricyclo[4.3.0.0^2,^4]nona-1(6),8-dien-7-yl]acetamide]: the pEC50 in data set [1] was 10.68. Also, the CC50 at 4 days in data set [2] is > 50 nM.

With `Cc1cc(C2CCC(F)(F)CC2)nc2nc([C@H](Cc3cc(F)cc(F)c3)NC(=O)Cn3nc(C4CC4)c4c3C[C@@H]3C[C@H]43)n(-c3ccc(Cl)c4c(NS(C)(=O)=O)nn(CCN5CCO[C@H](C(C)C)C5)c34)c(=O)c12` (atropisomer, axis not shown; (P)) [Example 457, N-[(1S)-1-[(3P)-3-(4-chloro-3-methanesulfonamido-1-{2-[(2R)-2-(propan-2-yl)morpholin-4-yl]ethyl}-1H-indazol-7-yl)-7-(4,4-difluorocyclohexyl)-5-methyl-4-oxo-3H,4H-pyrido[2,3-d]pyrimidin-2-yl]-2-(3,5-difluorophenyl)ethyl]-2-[(2S,4S)-9-cyclopropyl-7,8-diazatricyclo[4.3.0.0^2,^4]nona-1(6),8-dien-7-yl]acetamide], in data set [1], the pEC50 is 11.15. For the same compound, in data set [2] (setting [3]), the CC50 at 4 days was > 20 nM.

As to `CS(=O)(=O)Nc1nn(CCN2C[C@H]3CC[C@@H](C2)O3)c2c(-n3c([C@H](Cc4cc(F)cc(F)c4)NC(=O)Cn4nc(C5CC5)c5c4C[C@@H]4C[C@H]54)nc4nc(C5CCC(F)(F)CC5)cc(C(F)F)c4c3=O)ccc(Cl)c12` (atropisomer, axis not shown; (P)) [Example 288, N-[(1S)-1-[(3P)-3-(4-chloro-3-methanesulfonamido-1-{2-[(1R,5S)-8-oxa-3-azabicyclo[3.2.1]octan-3-yl]ethyl}-1H-indazol-7-yl)-7-(4,4-difluorocyclohexyl)-5-(difluoromethyl)-4-oxo-3H,4H-pyrido[2,3-d]pyrimidin-2-yl]-2-(3,5-difluorophenyl)ethyl]-2-[(2S,4S)-9-cyclopropyl-7,8-diazatricyclo[4.3.0.0^2,^4]nona-1(6),8-dien-7-yl]acetamide], the negative-log EC50 (pEC50) in data set [1] is 11.10. In addition, in data set [2] (setting [3]), the CC50 at 4 days was > 50 nM.
